The values below come from ChEMBL document CHEMBL3745679, “Identification and characterization of natural microbial products that alter the free d-aspartate content of mammalian cells” (2016).

Calls of active or inactive are those of the source. No cut-off for these calls is given here.

In experiment [1] the test system is PC-12. In words: Effect on L-aspartate biosynthesis in rat PC12 cells assessed as effect on total L-aspartate level up to 0.2 uM after 24 hrs by O-phthalaldehyde/N-acetyl-L-cysteine derivatization technique-based HPLC analysis. It is filed as functional, cell-based.
Experiment [2] deals with PC-12. Kind of experiment: Inhibition of D-aspartate biosynthesis in rat PC12 cells assessed as reduction of total D-aspartate content at 0.2 uM measured at 16 hrs by O-phthalaldehyde/N-acetyl-L-cysteine derivatization technique-based HPLC analysis relative to vehicle-treated control. In kind it is functional, cell-based.
For the next experiment, the system named is HEK293. In words: Increase in intracellular D-aspartate content in HEK293 cells at 5 ug after 24 hrs by O-phthalaldehyde/N-acetyl-L-cysteine derivatization technique-based HPLC analysis relative to total aspartate (reference value: 7.38 +/- 1.9%). In kind it is functional, Homo sapiens.
The subject of experiment [3] is PC-12. Kind of experiment: Effect on L-aspartate biosynthesis in rat PC12 cells assessed as effect on intracellular L-aspartate level up to 0.2 uM after 24 hrs by O-phthalaldehyde/N-acetyl-L-cysteine derivatization technique-based HPLC analysis. It is filed as functional, cell-based.
Experiment [4] relates to PC-12. In words: Inhibition of D-aspartate biosynthesis in rat PC12 cells assessed as reduction of D-aspartate content in cell culture medium at 0.2 uM measured at 6 to 12 hrs by O-phthalaldehyde/N-acetyl-L-cysteine derivatization technique-based HPLC analysis relative to vehicle-treated control. In kind it is functional.
In experiment [5] the test system is PC-12. In words: Inhibition of D-aspartate biosynthesis in rat PC12 cells assessed as reduction of D-aspartate level in cell culture medium after 24 hrs by O-phthalaldehyde/N-acetyl-L-cysteine derivatization technique-based HPLC analysis. It is filed as functional.
Experiment [6] relates to PC-12. In words: Inhibition of D-aspartate biosynthesis in rat PC12 cells assessed as effect on intracellular D-aspartate content at 0.2 uM incubated up to 16 hrs by O-phthalaldehyde/N-acetyl-L-cysteine derivatization technique-based HPLC analysis relative to vehicle-treated control. It is filed as functional, cell-based.
For experiment [7], the system named is PC-12. Kind of experiment: Effect on L-aspartate biosynthesis in rat PC12 cells assessed as effect on L-aspartate level in cell culture medium up to 0.2 uM after 24 hrs by O-phthalaldehyde/N-acetyl-L-cysteine derivatization technique-based HPLC analysis. In kind it is functional.
The subject of experiment [8] is PC-12. In words: Inhibition of D-aspartate biosynthesis in rat PC12 cells assessed as reduction of intracellular D-aspartate level after 24 hrs by O-phthalaldehyde/N-acetyl-L-cysteine derivatization technique-based HPLC analysis. It is filed as functional, cell-based.
Experiment [9] concerns PC-12. In words: Inhibition of D-aspartate biosynthesis in rat PC12 cells assessed as reduction of total D-aspartate content at 0.2 uM measured at 1 to 6 hrs by O-phthalaldehyde/N-acetyl-L-cysteine derivatization technique-based HPLC analysis relative to vehicle-treated control. In kind it is functional, cell-based.
The test system of experiment [10] is PC-12. Kind of experiment: Inhibition of D-aspartate biosynthesis in rat PC12 cells assessed as reduction of intracellular D-aspartate content at 10 uM measured at 3 to 16 hrs by O-phthalaldehyde/N-acetyl-L-cysteine derivatization technique-based HPLC analysis relative to vehicle-treated control. It is filed as functional, cell-based.
Experiment [11] concerns PC-12. In words: Inhibition of D-aspartate biosynthesis in rat PC12 cells assessed as reduction of intracellular D-aspartate content at 10 uM measured at 1 hr by O-phthalaldehyde/N-acetyl-L-cysteine derivatization technique-based HPLC analysis relative to vehicle-treated control. In kind it is functional, cell-based.
For experiment [12], the system named is PC-12. Kind of experiment: Effect on L-aspartate biosynthesis in rat PC12 cells assessed as effect on L-aspartate level in cell culture medium up to 10 uM after 24 hrs by O-phthalaldehyde/N-acetyl-L-cysteine derivatization technique-based HPLC analysis. It is filed as functional.
Experiment [13] has as its system PC-12. In words: Inhibition of D-aspartate biosynthesis in rat PC12 cells assessed as reduction of D-aspartate level in cell culture medium up to 10 uM after 24 hrs by O-phthalaldehyde/N-acetyl-L-cysteine derivatization technique-based HPLC analysis. It is filed as functional.
The subject of experiment [14] is PC-12. In words: Inhibition of D-aspartate biosynthesis in rat PC12 cells assessed as reduction of total D-aspartate level after 24 hrs by O-phthalaldehyde/N-acetyl-L-cysteine derivatization technique-based HPLC analysis. In kind it is functional, cell-based.
Experiment [15] has as its system PC-12. Kind of experiment: Effect on L-aspartate biosynthesis in rat PC12 cells assessed as effect on total L-aspartate level up to 10 uM after 24 hrs by O-phthalaldehyde/N-acetyl-L-cysteine derivatization technique-based HPLC analysis. In kind it is functional, cell-based.
Experiment [16] deals with PC-12. In words: Inhibition of D-aspartate biosynthesis in rat PC12 cells assessed as reduction of intracellular D-aspartate level up to 10 uM after 24 hrs by O-phthalaldehyde/N-acetyl-L-cysteine derivatization technique-based HPLC analysis. It is filed as functional, cell-based.
Experiment [17] deals with PC-12. In words: Effect on L-aspartate biosynthesis in rat PC12 cells assessed as effect on intracellular L-aspartate level up to 10 uM after 24 hrs by O-phthalaldehyde/N-acetyl-L-cysteine derivatization technique-based HPLC analysis. In kind it is functional, cell-based.
The test system of experiment [18] is PC-12. Kind of experiment: Inhibition of D-aspartate biosynthesis in rat PC12 cells assessed as reduction of total D-aspartate content at 10 uM measured at 6 to 16 hrs by O-phthalaldehyde/N-acetyl-L-cysteine derivatization technique-based HPLC analysis relative to vehicle-treated control. It is filed as functional, cell-based.
For experiment [19], the system named is PC-12. In words: Inhibition of D-aspartate biosynthesis in rat PC12 cells assessed as reduction of total D-aspartate content at 10 uM measured at 1 to 3 hrs by O-phthalaldehyde/N-acetyl-L-cysteine derivatization technique-based HPLC analysis relative to vehicle-treated control. It is filed as functional, cell-based.
Experiment [20] has as its system PC-12. In words: Inhibition of D-aspartate biosynthesis in rat PC12 cells assessed as reduction of intracellular D-aspartate content up to 0.5 uM after 24 hrs by O-phthalaldehyde/N-acetyl-L-cysteine derivatization technique-based HPLC analysis. In kind it is functional, cell-based.
Experiment [21] concerns PC-12. In words: Effect on L-aspartate biosynthesis in rat PC12 cells assessed as effect on total L-aspartate content up to 0.5 uM after 24 hrs by O-phthalaldehyde/N-acetyl-L-cysteine derivatization technique-based HPLC analysis. It is filed as functional, cell-based.
In experiment [22] the test system is PC-12. In words: Effect on L-aspartate biosynthesis in rat PC12 cells assessed as effect on intracellular L-aspartate content up to 0.5 uM after 24 hrs by O-phthalaldehyde/N-acetyl-L-cysteine derivatization technique-based HPLC analysis. It is filed as functional, cell-based.
The subject of experiment [23] is PC-12. In words: Inhibition of D-aspartate biosynthesis in rat PC12 cells assessed as reduction of total D-aspartate level up to 0.5 uM after 24 hrs by O-phthalaldehyde/N-acetyl-L-cysteine derivatization technique-based HPLC analysis. In kind it is functional, cell-based.

On to `CO[C@@H](C(=O)[C@H](O)[C@@H](C)O)[C@H]1Cc2cc3cc(O[C@H]4C[C@@H](O[C@@H]5C[C@H](O)[C@@H](O)[C@H](C)O5)[C@H](O)[C@@H](C)O4)c(C)c(O)c3c(O)c2C(=O)[C@@H]1O[C@H]1C[C@@H](O[C@@H]2C[C@H](O[C@H]3C[C@](C)(O)[C@H](O)[C@@H](C)O3)[C@@H](O)[C@H](C)O2)[C@H](O)[C@@H](C)O1`, for which the outcome in the experiment with PC-12 [1], with PC-12 [3] and with PC-12 [7] was inactive. Moreover, the inhibition entry with PC-12 [2] and with PC-12 [4] was “Active” throughout. Moreover, the Activity in the experiment with HEK293 came to 9.33%. Moreover, the inhibition entry with PC-12 [5] and with PC-12 [8] was “Dose-dependent effect” each time. In addition, the inhibition entry in the experiment with PC-12 [6] and with PC-12 [9] was “inactive” in each case.

As to `COC1=C2C[C@@H](C)C[C@H](OC)[C@H](O)[C@@H](C)/C=C(\C)[C@H](OC(N)=O)[C@@H](OC)/C=C\C=C(/C)C(=O)NC(=CC1=O)C2=O` [GELDANAMYCIN], the inhibition entry in the experiment with PC-12 [10], with PC-12 [13], in the experiment on PC-12 [16] and in the experiment on PC-12 [18] was “Active” each time. The inhibition result in the experiment on PC-12 [11] and in the experiment on PC-12 [19] was “inactive” each time. Moreover, the outcome with PC-12 [12], with PC-12 [15] and in the experiment on PC-12 [17] was inactive. In the experiment on PC-12 [14], the inhibition entry is “Dose-dependent effect”. In addition, the Activity in the experiment with HEK293 amounted to 15.8%.

Turning to `CC(C)[C@H]1CC[C@@]2(CO2)[C@H]2C(=O)OCC(C(=O)O)=C[C@H]12`, the inhibition entry in the experiment with PC-12 [20] and with PC-12 [23] was “inactive” each time. For the same compound, the outcome in the experiment on PC-12 [21] and in the experiment with PC-12 [22] was inactive. This compound yielded an Activity in the experiment with HEK293 of 0.291%.
